Patent publication US20040132821A1, “Therapeutic combination of carnitine and antioxidant polyphenols” (priority 2002, published 2004)
Like-named read-outs stand apart in the source and are kept apart here.

Columns and labels:
[1] = system: mice; assay: Toxicological test, parenteral administration, mice; format: in vivo
Description: (§1) Both carnitines and hydroxytyrosol are well known for their low toxicity and good tolerability. These favorable toxicological characteristics of carnitines and hydroxytyrosol have been confirmed.

[2] = system: rats; assay: Toxicological test, parenteral administration, rats; format: in vivo
Description: as §1

[3] = humans, after ingestion; cited from earlier work
[4] = after consumption of a meal, hydroxytyrosol in olive oil; cited from earlier work
[5] = cited from earlier work

Row | Compound | amount possible to administer parenterally [1] | amount possible to administer parenterally [2] | preferential route of excretion [3] | time of peak postprandial concentration [4] [h] | oral bioavailability ([5]; aqueous solution) [%] | oral bioavailability ([5]; olive oil solution) [%]
1 | CC(=O)O[C@H](CC(=O)[O-])C[N+](C)(C)C [acetyl-L-carnitine, Acetyl-L-carnitine] | up to 250 mg/kg | up to 250 mg/kg | – | – | – | –
2 | OCCc1ccc(O)c(O)c1 [hydroxytyrosol, Hydroxytyrosol] | – | – | glucuronide conjugates in urine | 1 to 2 | 71 | 99
